According to patent US20050085432A1, “Methods of using conjugates of saccharides and acetamidino or guanidino compounds for treating bacterial infections” (priority 2001, published 2005):

How the values were obtained:
[1] = tested on: E. coli RNase P; assay: RNase P activity assay (ptRNA processing), in-vitro reconstituted E. coli RNase P; format: biochemical; settings: for inhibition of RNase P processing activity: radiolabeled ptRNA Tyr su3+ substrate, FIG. 3; for effect of poly A RNA on ability to inhibit E. coli RNase P: as much as 1 μM poly A RNA added; for IC50: initial reaction velocities at increasing inhibitor concentrations, FIG. 4a-b, read-out: IC50, inhibition of E. coli RNase P activity
Method: RNase P from E. coli was prepared and purified according to Vioque, A. et al. (1988) J. Mol. Biol. 202:835-848 and Gopalan, V. (1997) J. Mol. Biol. 267:818-829.
ptRNA^Tyrsu3+ was prepared by in vitro transcription of FokI-digested pUC19TyrT [Vioque, A. et al. (1988) J. Mol. Biol. 202:835-848].
RNase P activity was determined in the presence or absence of AAC inhibitors suspended in 50 mM Tris-Hcl (7.2), 5 % (w/v) polyethylene glycol 8000, 1 mM NH4Cl, 10 mM spermidine, 10 mM MgCl2. Reactions were carried under multiple-tumover conditions (for example, 100 nM of radio-labeled ptRNA^Tyrsu3+ and 0.5 nM E. coli RNase P holoenzyme).
Following holoenzyme assembly, AAC inhibitors were added to the reaction mixture and incubated for 5 minutes prior to the addition of [^32P]-ptRNA^Tyrsu3+ substrate. Reactions were allowed to proceed for the indicated times and were terminated by adding a quenching dye [7 M Urea, 10 mM EDTA, 10% (v/v) phenol]. Reaction products were resolved by gel electrophoresis (8% polyacrylamide/7 M Urea) and auto-radiograms were obtained.
(§1) Extent of substrate cleavage was quantified using a PhosphorImager (Molecular Dynamics) and ImageQuant softwares.

[2] = tested on: RNase P derived from N. gonnorhoeae; assay: RNase P activity assay (ptRNA processing), reconstituted N. gonnorhoeae RNase P; format: biochemical, Neisseria gonnorhoeae; settings: FIG. 3
Method: (§2) Polynucleotide sequences of Neisseria gonnorhoeae, Porphyromonas gingivalis and Streptococcus pneumoniae (SEQ ID NOS: 1, 3 and 5, respectively) expressing amino acid (SEQ ID NOS: 2, 4 and 6, respectively) subunits of RNase P were PCR amplified using standard PCR methodology. The genes encoding the RNA subunit of RNase P were cloned into pUC19 under the transcriptional control of a T7 RNA polymerase promoter. T7 RNA polymerase-mediated run-off in vitro transcription was performed on individual clones to generate the respective RNase P RNAs, which were then purified using Quick Spin columns. cDNAs encoding the protein subunits of the various bacterial species were subcloned into either expression vectors: pCRT7TOPO or pBAD (Invitrogen, Carlsbad, Calif.). Proteins were over-expressed in E. coli as His6-tagged fusion proteins and purified to homogeneity using a combination of cation exchange and immobilized metal affinity chromatography.
(§3) RNase P activity was determined in the presence or absence of AAC inhibitors suspended in 50 mM Tris-Hcl (7.2), 5 % (w/v) polyethylene glycol 8000, 1 mM NH4Cl, 10 mM spermidine, 10 mM MgCl2. Reactions were carried under multiple-tumover conditions (for example, 100 nM of radio-labeled ptRNA^Tyrsu3+ and 0.5 nM E. coli RNase P holoenzyme). […]
as §1

[3] = tested on: RNase P derived from S. pneumoniae; assay: RNase P activity assay (ptRNA processing), reconstituted S. pneumoniae RNase P; format: biochemical, Streptococcus pneumoniae; settings: FIG. 3
Method: as §2, §3, §1

[4] = tested on: RNase P derived from P. gingivalis; assay: RNase P activity assay (ptRNA processing), reconstituted P. gingivalis RNase P; format: biochemical, Porphyromonas gingivalis; settings: FIG. 3
RNase P derived from P. gingivalis, sequence (as listed by the source): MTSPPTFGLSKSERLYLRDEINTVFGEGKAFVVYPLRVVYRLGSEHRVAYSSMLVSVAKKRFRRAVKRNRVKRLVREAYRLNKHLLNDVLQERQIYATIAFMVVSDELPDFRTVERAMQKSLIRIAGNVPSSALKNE
Method: as §2, §3, §1

[5] = tested on: human RNase P; assay: Activity of partially purified human RNase P (ptRNA processing); format: biochemical; settings: FIG. 5; for inhibition of human RNase P: 7.5 μM; for effect on human RNase P activity: concentrations 10-fold greater than the IC50 values for E. coli RNase P
Method: In order to determine if the AAC inhibitors of the present invention cross-react with human RNase P, the activity of a partially purified human enzyme was tested in the absence or presence of various concentrations of NeoR and […].

[6] = target: various bacterial RNase P; assay: RNase P activity assay, various bacterial RNase P; format: biochemical; settings: concentration range
Method: as §2, §3, §1

[7] = two single doses of 25 mg/kg body weight for the duration of two hours; cited from earlier work
[8] = tested on: RNP complex formed between HIV TAR RNA and Tat-derived peptide; settings: 10-fold excess of tRNA; cited from earlier work

| Compound | inhibition of RNase P specific activity ([1]; 10-fold excess concentration over the ptRNA substrate, FIG. 6) | inhibition of RNase P processing activity ([1]; 500 nM NeoR) | effect of poly A RNA on ability to inhibit E. coli RNase P ([1]; FIG. 6) | IC50 [1] | IC50 fold lower than that of the parental aminoglycoside ([1]; versus literature value of parental aminoglycoside (Mikkelsen 1999)) | inhibition of RNase P processing activity ([2]; 500 nM NeoR) | inhibition of RNase P processing activity ([3]; 500 nM NeoR) | susceptibility of RNase P activity to the inhibitor ([4]; 500 nM NeoR) | inhibition of human RNase P [5] | effect on human RNase P activity [5] | IC50 for inhibition of various bacterial RNase P [6] | toxicity to mice [7] | inhibition of RNase P processing activity ([1]; 1500 nM R3G) | inhibition of RNase P processing activity ([2]; 1500 nM R3G) | inhibition of RNase P processing activity ([3]; 1500 nM R3G) | susceptibility of RNase P activity to the inhibitor ([4]; 1500 nM R3G) | effect of tRNA on ability to disrupt the TAR RNA/Tat-derived peptide complex [8] |
| --- | --- | --- | --- | --- | --- | --- | --- | --- | --- | --- | --- | --- | --- | --- | --- | --- | --- |
| N=C(N)NCCC[C@H](N)C(=O)O [L-Arginine, reference compound] | did not inhibit |  |  |  |  |  |  |  |  |  |  |  |  |  |  |  |  |
| hexa-argininamido-neomycin B [NeoR] |  | nearly complete inhibition | failed to alter | 125 nM | 100 fold | nearly complete inhibition | nearly complete inhibition | less susceptible | nearly complete inhibition | largely unaffected | sub-micromolar | not toxic |  |  |  |  |  |
| triargininamido-gentamycin C [R3G] |  |  | failed to alter | 300 nM |  |  |  |  | nearly complete inhibition | largely unaffected | sub-micromolar |  | nearly complete inhibition | nearly complete inhibition | nearly complete inhibition | less susceptible | no effect |
